For 15 molecules, GI50, Activity and inhibition results are on record in ChEMBL document CHEMBL3867470, “Synthesis and biological evaluation of heteroaryl styryl sulfone derivatives as anticancer agents” (Bioorg Med Chem Lett, 2016).

Series [1] in a line: Antiproliferative activity against human PC3 cells measured after 72 hrs by MTT assay. It counts as functional. The conditions noted are these: PC-3, 72 h.
A short description of series [2]: Antiproliferative activity against human DaOY cells measured after 72 hrs by MTT assay. It counts as functional.
For series [3], the system named is A2780. Kind of series: Induction of apoptosis in human A2780 cells assessed as viable cells at 5 times GI50 measured after 24 hrs by Annexin V/propidium iodide staining-based FACS analysis (reference value: 92.6%). It counts as functional. On the technique in general: A flow cytometer gives signals particle by particle.
Series [4] is described as follows: Cell cycle arrest in human A2780 cells assessed as accumulation at Sub-G1 phase at GI50 measured after 24 hrs by propidium iodide staining-based FACS analysis (reference value: 2%). It counts as functional.
The subject of series [5] is A2780. Kind of series: Induction of apoptosis in human A2780 cells assessed as viable cells at GI50 measured after 24 hrs by Annexin V/propidium iodide staining-based FACS analysis (reference value: 92.6%). It counts as functional.
A short description of series [6]: Antiproliferative activity against human KM12 cells measured after 72 hrs by MTT assay. The following applies: KM12, 72 h. It counts as functional. (In general: Tetrazolium dyes change colour on reduction, which living cells bring about.)
A short description of series [7]: Cytotoxicity against human MRC5 cells assessed as reduction in cell viability measured after 72 hrs by MTT assay. It counts as toxicity, cell-based.
Series [8] concerns A2780. Nature of the series: Induction of apoptosis in human A2780 cells assessed as necrotic cells at 5 times GI50 measured after 24 hrs by Annexin V/propidium iodide staining-based FACS analysis (reference value: 0.34%). It counts as functional.
A short description of series [9]: Cytotoxicity against human WI38 cells assessed as reduction in cell viability measured after 72 hrs by MTT assay. It counts as toxicity, cell-based, WI-38.
Series [10] is described as follows: Antiproliferative activity against human HT-29 cells measured after 72 hrs by MTT assay. The following applies: HT-29, 72 h. It counts as functional.
In series [11] the target is Serine/threonine-protein kinase PLK1 (Homo sapiens) (UniProt P53350). Nature of the series: Inhibition of Plk1 in human A2780 cells assessed as reduction in CDC25C phosphorylation at Ser198 residue at 300 to 3000 nM measured after 24 hrs by Western blot analysis. It counts as cell-based.
Series [12] in a line: Cell cycle arrest in human A2780 cells assessed as accumulation at G1-phase at 5 times GI50 measured after 24 hrs by propidium iodide staining-based FACS analysis (reference value: 53%). It counts as functional.
A short description of series [13]: Antiproliferative activity against human 22Rv1 cells measured after 72 hrs by MTT assay. It counts as functional, CWR22R. The conditions noted are these: 22Rv1, 72 h.
Series [14] can be described thus: Antiproliferative activity against human DU145 cells measured after 72 hrs by MTT assay. It counts as functional. The following applies: DU-145, 72 h.
In series [15] the test system is A2780. Nature of the series: Induction of apoptosis in human A2780 cells assessed as early apoptotic cells at 5 times GI50 measured after 24 hrs by Annexin V/propidium iodide staining-based FACS analysis (reference value: 2.81%). It counts as functional.
The nature of series [16]: Antiproliferative activity against human MCF7 cells measured after 72 hrs by MTT assay. It counts as functional. The following applies: MCF7, 72 h.
The nature of series [17]: Antiproliferative activity against human C4-2B cells measured after 72 hrs by MTT assay. It counts as functional. The following applies: LNCaP C4-2B.
Series [18] in a line: Cell cycle arrest in human A2780 cells assessed as accumulation at G2/M-phase at 5 times GI50 measured after 24 hrs by propidium iodide staining-based FACS analysis (reference value: 26%). It counts as functional.
A short description of series [19]: Cell cycle arrest in human A2780 cells assessed as accumulation at G2/M-phase at GI50 measured after 24 hrs by propidium iodide staining-based FACS analysis (reference value: 26%). It counts as functional.
A short description of series [20]: Cell cycle arrest in human A2780 cells assessed as accumulation at S-phase at GI50 measured after 24 hrs by propidium iodide staining-based FACS analysis (reference value: 19%). It counts as functional.
The test system of series [21] is A2780. Kind of series: Induction of apoptosis in human A2780 cells assessed as late apoptotic cells at 5 times GI50 measured after 24 hrs by Annexin V/propidium iodide staining-based FACS analysis (reference value: 4.23%). It counts as functional.
The nature of series [22]: Antiproliferative activity against human HCT116 cells measured after 72 hrs by MTT assay. It counts as functional. The following applies: HCT-116, 72 h.
Series [23] in a line: Antiproliferative activity against human COLO205 cells measured after 72 hrs by MTT assay. It counts as functional. The conditions noted are these: COLO 205, 72 h.
Series [24] in a line: Cell cycle arrest in human A2780 cells assessed as accumulation at Sub-G1 phase at 5 times GI50 measured after 24 hrs by propidium iodide staining-based FACS analysis (reference value: 2%). It counts as functional.
The test system of series [25] is A2780. Kind of series: Induction of apoptosis in human A2780 cells assessed as late apoptotic cells at GI50 measured after 24 hrs by Annexin V/propidium iodide staining-based FACS analysis (reference value: 4.23%). It counts as functional.
Series [26] can be described thus: Antiproliferative activity against human PANC1 cells measured after 72 hrs by MTT assay. It counts as functional. The following applies: PANC-1, 72 h.
Series [27] has as its system A2780. Kind of series: Induction of apoptosis in human A2780 cells assessed as early apoptotic cells at GI50 measured after 24 hrs by Annexin V/propidium iodide staining-based FACS analysis (reference value: 2.81%). It counts as functional.
Series [28] can be described thus: Cell cycle arrest in human A2780 cells assessed as accumulation at G1-phase at GI50 measured after 24 hrs by propidium iodide staining-based FACS analysis (reference value: 53%). It counts as functional.
Series [29] deals with A2780. Nature of the series: Induction of apoptosis in human A2780 cells assessed as necrotic cells at GI50 measured after 24 hrs by Annexin V/propidium iodide staining-based FACS analysis (reference value: 0.34%). It counts as functional.
Series [30] can be described thus: Cell cycle arrest in human A2780 cells assessed as accumulation at S-phase at 5 times GI50 measured after 24 hrs by propidium iodide staining-based FACS analysis (reference value: 19%). It counts as functional.
Series [31] in a line: Antiproliferative activity against human A2780 cells measured after 72 hrs by MTT assay. It counts as functional. The conditions noted are these: A2780, 72 h.
Series [32] deals with A2780. Kind of series: Induction of apoptosis in human A2780 cells assessed as cleaved PARP level at 300 to 3000 nM measured after 24 hrs by Western blot analysis. It counts as functional, cell-based. (In western blotting, separated proteins are transferred to a membrane and probed.)
The nature of series [33]: Antiproliferative activity against human LNCAP cells measured after 72 hrs by MTT assay. It counts as functional.
In series [34] the test system is A2780. Nature of the series: Induction of apoptosis in human A2780 cells assessed as downregulation of Mcl1 level at 300 to 3000 nM measured after 24 hrs by Western blot analysis. It counts as functional, cell-based.
Series [35] concerns A2780. Kind of series: Induction of apoptosis in human A2780 cells assessed as cleaved PARP level at 200 to 1000 nM measured after 24 hrs by Western blot analysis. It counts as functional, cell-based.
The target in series [36] is Serine/threonine-protein kinase PLK1 (Homo sapiens) (UniProt P53350). The conditions noted are these: A2780, 200 to 1000 nM.
Description: Inhibition of Plk1 in human A2780 cells assessed as reduction in CDC25C phosphorylation at Ser198 residue at 200 to 1000 nM measured after 24 hrs by Western blot analysis
Series [37] concerns A2780. Kind of series: Induction of apoptosis in human A2780 cells assessed as downregulation of Mcl1 level at 200 to 1000 nM measured after 24 hrs by Western blot analysis. It counts as functional, cell-based.

The source made the active and inactive calls. The calls are words filed in the database; no cut-off is given here.

Serine/threonine-protein kinase PLK1 (Homo sapiens), sequence (P53350 whole entry): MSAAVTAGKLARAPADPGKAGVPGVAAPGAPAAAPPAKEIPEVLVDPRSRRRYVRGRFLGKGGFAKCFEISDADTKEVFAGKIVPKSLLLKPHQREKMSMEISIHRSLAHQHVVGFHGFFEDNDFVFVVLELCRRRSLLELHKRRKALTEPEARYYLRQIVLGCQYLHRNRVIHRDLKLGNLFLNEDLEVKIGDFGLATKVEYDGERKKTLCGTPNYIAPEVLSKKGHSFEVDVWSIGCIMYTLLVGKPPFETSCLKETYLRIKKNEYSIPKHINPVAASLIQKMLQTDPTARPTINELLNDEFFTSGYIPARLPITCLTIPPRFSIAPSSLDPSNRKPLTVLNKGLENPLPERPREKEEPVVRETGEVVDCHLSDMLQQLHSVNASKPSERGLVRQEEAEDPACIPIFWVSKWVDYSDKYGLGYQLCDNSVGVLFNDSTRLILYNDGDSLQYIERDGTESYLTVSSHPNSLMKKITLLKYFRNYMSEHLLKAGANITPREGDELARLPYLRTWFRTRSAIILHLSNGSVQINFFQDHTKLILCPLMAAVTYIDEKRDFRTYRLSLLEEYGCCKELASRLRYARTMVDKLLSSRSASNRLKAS

Turning to `CCOc1ccc(NS(=O)(=O)/C=C/c2c(OC)cc(OC)cc2OC)cc1`, the GI50 (usually the concentration giving 50% growth inhibition) worked out at 600 nM in [1]; 340 nM in series [2]; 340 nM in [6]; 580 nM in series [10]; 530 nM in series [13]; 520 nM in series [14]. In addition, the concentration for 50% growth inhibition (GI50) in series [16] was 530 nM; in series [17] it was 450 nM; in [22], 350 nM; in [23], 590 nM; in series [26], 300 nM; in series [31], 310 nM. For the same molecule, the GI50 in series [33] came out at 520 nM. Also, the Activity in the series on A2780 [3] was 70.89%; in series [4], 5%; with A2780 [5] it was 83.21%; in the series with A2780 [8] it was 1.17%; in [12], 21%; with A2780 [15], 20.22%. Besides, the Activity in series [18] was 44%; in series [19], 29%; in series [20] it was 15%; in the series with A2780 [21], 7.57%; in [24], 19%; in the series on A2780 [25], 5.92%. For the same molecule, the Activity was found to be 10.03% in the series with A2780 [27], 50% in [28], 0.78% in the series with A2780 [29] and 16% in [30]. In addition, the GI50 at 72 h in series [7] and in [9] was above 10000 nM in each case. The inhibition result in series [11] was “Active”. Also, the outcome with A2780 [32] and in the series with A2780 [34] was Active.
`COc1cc(OC)c(/C=C/S(=O)(=O)Cc2nc(Cl)ncc2OC)c(OC)c1`: the GI50 in [22] and in series [31] was above 10000 nM each time.
As to `CCOc1cc(OC)cc(OC)c1/C=C/S(=O)(=O)Nc1ccc(OC)nc1`, the GI50 amounted to 420 nM in [22] and 470 nM in [31].
For `COc1ccc(NS(=O)(=O)/C=C/c2c(OC)cc(OC)cc2OC)cc1`, the GI50 in series [22] and in series [31] was 10 nM in each case.
For the molecule `COc1cc(OC)c(/C=C/S(=O)(=O)Nc2cnc(Cl)cn2)c(OC)c1`, the 50% growth inhibitory concentration (GI50) in [22] and in [31] was above 10000 nM throughout.
For `CCOc1cnc(CS(=O)(=O)/C=C/c2c(OC)cc(OC)cc2OC)cn1`, the GI50 in series [22] amounted to 1280 nM; in [31] it was 540 nM.
With `CNc1ncc(OC)c(CS(=O)(=O)/C=C/c2c(OC)cc(OC)cc2OC)n1`, the GI50 in series [22] is above 10000 nM; in series [31] it was 7540 nM.
For the molecule `COc1cc(OC)c(/C=C/S(=O)(=O)Nc2ccc(Cl)nc2)c(OC)c1`, the 50% growth inhibitory concentration (GI50) came to 5640 nM in series [22] and 2600 nM in series [31].
As for `COc1cc(OC)c(/C=C/S(=O)(=O)Cc2cnc(Cl)cn2)c(OC)c1`, the GI50 in series [22] is above 10000 nM; in [31], 4760 nM.
With `COc1cc(OC)c(/C=C/S(=O)(=O)Cc2cnc(OC)c(OC)c2)c(OC)c1`, the GI50 is 2810 nM in [22] and 930 nM in [31].
`COc1cc(OC)c(/C=C/S(=O)(=O)Nc2ccc(OC)nc2)c(OC)c1`: the values for the GI50 in [22] and in [31] were 1000 nM and 380 nM, respectively.
As to `COc1cc(OC)c(/C=C/S(=O)(=O)Nc2ccc(Cl)cc2)c(OC)c1`, the GI50 in series [22] and in series [31] was above 10000 nM each time.
For the molecule `COc1cc(OC)c(/C=C/S(=O)(=O)Cc2cnc(OC)cn2)c(OC)c1`, the values for the GI50 in series [22] and in series [31] were 950 nM and 490 nM, respectively.
Regarding `COc1cc(OC)c(/C=C/S(=O)(=O)Cc2nc(N)ncc2OC)c(OC)c1`, the GI50 in [22] and in [31] was above 10000 nM throughout.
`COc1cc(OC)c(/C=C/S(=O)(=O)Cc2ccc(OC)c(NCC(=O)[O-])c2)c(OC)c1.[Na+]` [RIGOSERTIB SODIUM]: the Activity with A2780 [3] was determined as 69.9%; in [4], 5%; with A2780 [5], 91.82%; in the series on A2780 [8], 0.29%; in series [12] it was 20%; with A2780 [15], 27.41%. Moreover, the Activity in series [18] worked out at 33%; in [19], 28%; in [20], 19%; with A2780 [21], 2.25%; in series [24], 30%; with A2780 [25], 2.75%. Also, the Activity with A2780 [27] worked out at 5.16%; in series [28] it was 48%; in the series with A2780 [29], 0.25%; in series [30] it was 17%. In addition, the outcome with A2780 [35] and with A2780 [37] was Active. Moreover, the inhibition result in series [36] is “Active”. Moreover, the GI50 in series [22] was 60 nM; in [31], 40 nM.
